Laboratory results: patent publication US20110040086A1, “Novel Beta-Lactam Antibiotics, Methods for Their Production, and Their Use” (DRITTE PATENTPORTFOLIO BETEILIGUNGSGESELLSCHAFT MB, priority 2007, published 2011)

Legend:
S. aureus 36881 = test: agar diffusion test (Test System II, multi-resistant germs); type: cell-based, Staphylococcus aureus; set-up: key: r = resistant (no detectable zone of inhibition)
Experimental: (§1) The test substances are deposited in stepped quantities (10 μg, 50 μg, 100 μg) onto active ingredient carriers (sensi-discs). For this purpose, the test substances are dissolved in methanol or A. dest. according to their solubility. Each inoculated plate is fitted with 3 test sheets.
(§2) Test System II (Effect Against Multi-Resistant Germs)
(§3) For this purpose, bacteria is cultivated on Müller-Hinton-Agar II plates.
(§4) With 1-1.5 ml physiological saline solution, a bacteria suspension of McFarland 0.5 (corresponds to a bacteria density of 150×10^6 germs) is produced. Then, with a sterile glass rod, a small drop of bacteria suspension is placed on the Müller-Hinton-Agar plate and coated in three layers (vertical, horizontal, and transverse). Thereafter, the sensi-discs with the novel semi-synthetic test substances are placed on top. The fitted plates are incubated for 18-20 hours at 37° C. After incubation, the diameters of the zones of inhibition are read as a measure for the antimicrobial activity of the novel semi-synthetic test substances.

[1] = system: S. aureus North Germany strain; test: as above; type: cell-based, Staphylococcus aureus; set-up: key: r = resistant (no detectable zone of inhibition)
Experimental: as §1, §2, §3, §4

S. aureus 520 = test: as above; type: cell-based, Staphylococcus aureus; set-up: key: r = resistant (no detectable zone of inhibition)
Experimental: as §1, §2, §3, §4

S. aureus 38418 = test: as above; type: cell-based, Staphylococcus aureus
Experimental: as §1, §2, §3, §4

S. aureus ATCC 6538 = test: as above; type: cell-based, Staphylococcus aureus
Experimental: as §1, §2, §3, §4

S. epidermidis 125 = test: as above; type: cell-based, Staphylococcus epidermidis
Experimental: as §1, §2, §3, §4

S. epidermidis 847 = test: as above; type: cell-based, Staphylococcus epidermidis; set-up: key: r = resistant (no detectable zone of inhibition)
Experimental: as §1, §2, §3, §4

[2] = system: Staphylococcus aureus ATCC 6538; test: mouse infected with Staphylococcus aureus infection model (survival); type: in vivo, BALB/c mice; details: 2 × 1.0 mg (50 mg/kg) i.p.
Experimental: Method for Effectiveness In Vivo with the Mouse Infected with Staphylococcus aureus Model
On Day 0, at least 3 BALB/c mice per test substance (Table 8) or controls are pretreated with cyclophosphamide (250 mg/kg) in 250 μl PBS inta peritoneal (i.p.).
On Day 2, the animals again received 100 mg/kg i.p.
On Day 2, a colony of the test germ is transferred from a growing agar plate (Müller-Hinton-Agar, Beckton Dickinson) into a flask with 10 ml CASO broth (CASO-B., Soyabean peptone-Casein peptone broth, SIFIN, 30 g/l) and is cultivated overnight at 37° C. and a shaking frequency of 250 rpm.
On Day 3, the pre-culture (Vk) is diluted 1:50 with CASO-B and further cultivated ca. 2 hours until an extinction in the medium of 0.6 at a wavelength of 550 nm is reached. Then, it is grown 1× with PBS at room temperature and set again to an extinction of 0.6.
At least 3 animals for a test substance or controls are infected with 10 μl/g body weight grown germs of a bacteria suspension with the extinction 0.6 (ca. 10^10-10^12 CFU, Colony forming units) i.p.
After 30 minutes, antibiotic solution is injected into the mice in a volume of 200 μl PBS with 3% DMSO i.p. 6 hours later, the second antibiotic injection is performed at the same concentration. […]

[3] = system: Enterococcus faecalis 769; test: agar diffusion test (Test System II, multi-resistant germs); type: cell-based; set-up: key: r = resistant (no detectable zone of inhibition)
Experimental: as §1, §2, §3, §4

[4] = system: Staphylococcus aureus 315; test: as above; type: cell-based; set-up: key: r = resistant (no detectable zone of inhibition)
Experimental: as §1, §2, §3, §4

E. faecalis 945 = test: as above; type: cell-based, Enterococcus faecalis; set-up: key: r = resistant (no detectable zone of inhibition)
Experimental: as §1, §2, §3, §4

S. aureus 34289 = test: as above; type: cell-based, Staphylococcus aureus; set-up: key: r = resistant (no detectable zone of inhibition)
Experimental: as §1, §2, §3, §4

S. aureus 33490 = test: as above; type: cell-based, Staphylococcus aureus; set-up: key: r = resistant (no detectable zone of inhibition)
Experimental: as §1, §2, §3, §4

S. aureus 526 = test: as above; type: cell-based, Staphylococcus aureus; set-up: key: r = resistant (no detectable zone of inhibition)
Experimental: as §1, §2, §3, §4

S. aureus 39105 = test: as above; type: cell-based, Staphylococcus aureus; set-up: key: r = resistant (no detectable zone of inhibition)
Experimental: as §1, §2, §3, §4

B. subtilis AWD 166 = test: agar diffusion test (antimicrobial effect); type: cell-based, Bacillus subtilis
Experimental: (§5) The seeding of bacteria in agar is selected so that, dense, but not confluent individual colonies develop after the incubation.
(§6) The inoculated nutrient agar is set in sterile Petri dishes and left standing for a few minutes for drying.
as §1
(§7) After a 20-hour incubation time at 37° C., the zones of inhibition around the individual test sheets could be measured. The diameter of the zone of inhibition is specified in mm.

[5] = system: Bacillus megaterium SBUG 1152; test: agar diffusion test (Test System 1, antimicrobial effect); type: cell-based
Experimental: (§8) Test System 1 (Antimicrobial Effect)
(§9) The test germs Escherichia coli SBUG 1135 and Bacillus megaterium SBUG 1152 are drawn overnight (17 hours at 37° C.) in 5 ml nutrient medium II. The incubation is performed in a shaking incubator (INFORS AG CH 4103, Bottmingen, Switzerland) at a shaking frequency of 180 rpm.
(§10) After 17 h incubation time, Escherichia coli has reached a cell density of ca. 2.4×10^10 cells/ml and Bacillus megaterium a cell density of ca. 2.1×10^8 cells/ml.
as §5
Bacillus megaterium: 0.1 ml of non-diluted overnight culture (ÜN) in 10 ml nutrient agar corresponds to a cell count of 10^6.
as §6, §1, §7

[6] = system: Escherichia coli SBUG 1135; test: as above; type: cell-based; set-up: key: r = resistant (no detectable zone of inhibition)
Experimental: as §8, §9, §10, §5
Escherichia coli: the ÜN is diluted 1:100 with physiological saline solution, of which 0.1 ml is converted into 10 ml nutrient agar. That corresponds to a cell count of 10^6.
as §6, §1, §7

S. epidermidis 1071 = test: agar diffusion test (Test System II, multi-resistant germs); type: cell-based, Staphylococcus epidermidis; set-up: key: r = resistant (no detectable zone of inhibition)
Experimental: as §1, §2, §3, §4

S. epidermidis 1068 = test: as above; type: cell-based, Staphylococcus epidermidis; set-up: key: r = resistant (no detectable zone of inhibition)
Experimental: as §1, §2, §3, §4

S. epidermidis 563 = test: as above; type: cell-based, Staphylococcus epidermidis; set-up: key: r = resistant (no detectable zone of inhibition)
Experimental: as §1, §2, §3, §4

3-chlorine-7-[2-(2-methoxycarbonyl-3,6-dioxocyclohexa-1,4-dienylamino)-2-phenyl-acetylamino]-8-oxo-5-aza-bicyclo[4.2.0]oct-3-ene-4-carboxylic acid [1o]
18 mm: Diameter of zone of inhibition (S. epidermidis 847; Quantity n [mol] 0.19)
10 mm: Diameter of zone of inhibition ([4]; Quantity n 0.19)
20 mm: Diameter of zone of inhibition (S. epidermidis 125; Quantity n 0.094)
28 mm: Diameter of zone of inhibition (S. aureus 38418; Quantity n [mol] 0.19) | Diameter of zone of inhibition (S. aureus ATCC 6538; Quantity n 0.094)
2/3: Survival/tested mice n/n [2]
30 mm: Diameter of zone of inhibition (S. aureus ATCC 6538; Quantity n 0.19)
r: Diameter of zone of inhibition (S. aureus 36881; Quantity n 0.019) | Diameter of zone of inhibition (S. aureus 36881; Quantity n 0.094) | Diameter of zone of inhibition ([1]; Quantity n 0.019) | Diameter of zone of inhibition ([1]; Quantity n 0.094) | Diameter of zone of inhibition (S. aureus 520; Quantity n [mol] 0.019) | Diameter of zone of inhibition (S. aureus 520; Quantity n [mol] 0.094) | Diameter of zone of inhibition (S. aureus 520; Quantity n [mol] 0.19) | Diameter of zone of inhibition (S. epidermidis 847; Quantity n [mol] 0.019) | Diameter of zone of inhibition ([3]; Quantity n 0.019) | Diameter of zone of inhibition ([3]; Quantity n 0.094) | Diameter of zone of inhibition ([3]; Quantity n 0.19) | Diameter of zone of inhibition ([4]; Quantity n 0.019) | Diameter of zone of inhibition ([4]; Quantity n 0.094)
24 mm: Diameter of zone of inhibition (S. epidermidis 125; Quantity n 0.19)
14 mm: Diameter of zone of inhibition (S. aureus 38418; Quantity n [mol] 0.019) | Diameter of zone of inhibition (S. aureus 38418; Quantity n [mol] 0.094) | Diameter of zone of inhibition (S. epidermidis 125; Quantity n 0.019) | Diameter of zone of inhibition (S. epidermidis 847; Quantity n [mol] 0.094)
12 mm: Diameter of zone of inhibition (S. aureus 36881; Quantity n 0.19) | Diameter of zone of inhibition ([1]; Quantity n 0.19)
22 mm: Diameter of zone of inhibition (S. aureus ATCC 6538; Quantity n 0.019)

COC(=O)C1=C(NC(C(=O)NC2C(=O)N3C(C(=O)O)=C(C)CSC23)c2ccccc2)C(=O)C=CC1=O (stereo not shown) [1g, 7-[2-(2-methoxycarbonyl-3,6-dioxocyclohexa-1,4-dienylamino)-2-phenyl-acetylamino]-desacetoxycephalosporanic acid]
30 mm: Diameter of zone of inhibition (B. subtilis AWD 166; Quantity n 0.14) | Diameter of zone of inhibition (S. aureus 38418; Quantity n [mol] 0.29) | Diameter of zone of inhibition ([5]; Quantity n 0.14)
r: Diameter of zone of inhibition (E. faecalis 945; Quantity n 0.029) | Diameter of zone of inhibition (E. faecalis 945; Quantity n 0.14) | Diameter of zone of inhibition (E. faecalis 945; Quantity n 0.29) | Diameter of zone of inhibition (S. aureus 34289; Quantity n [mol] 0.029) | Diameter of zone of inhibition (S. aureus 34289; Quantity n [mol] 0.14) | Diameter of zone of inhibition (S. aureus 34289; Quantity n [mol] 0.29) | Diameter of zone of inhibition (S. aureus 33490; Quantity n [μmol] 0.029) | Diameter of zone of inhibition (S. aureus 526; Quantity n 0.029) | Diameter of zone of inhibition (S. aureus 526; Quantity n 0.14) | Diameter of zone of inhibition (S. aureus 526; Quantity n 0.29) | Diameter of zone of inhibition (S. aureus 36881; Quantity n 0.029) | Diameter of zone of inhibition (S. aureus 36881; Quantity n 0.14) | Diameter of zone of inhibition ([1]; Quantity n 0.029) | Diameter of zone of inhibition (S. aureus 520; Quantity n [mol] 0.029) | Diameter of zone of inhibition (S. aureus 520; Quantity n [mol] 0.14) | Diameter of zone of inhibition (S. aureus 520; Quantity n [mol] 0.29) | Diameter of zone of inhibition (S. aureus 39105; Quantity n 0.029) | Diameter of zone of inhibition ([6]; Quantity n 0.029) | Diameter of zone of inhibition (S. epidermidis 847; Quantity n [mol] 0.029) | Diameter of zone of inhibition (S. epidermidis 1071; Quantity n 0.029) | Diameter of zone of inhibition (S. epidermidis 1068; Quantity n 0.029) | Diameter of zone of inhibition (S. epidermidis 563; Quantity n 0.029) | Diameter of zone of inhibition ([3]; Quantity n 0.029) | Diameter of zone of inhibition ([3]; Quantity n 0.14) | Diameter of zone of inhibition ([3]; Quantity n 0.29) | Diameter of zone of inhibition ([4]; Quantity n 0.029) | Diameter of zone of inhibition ([4]; Quantity n 0.14)
26 mm: Diameter of zone of inhibition (S. aureus 38418; Quantity n [mol] 0.14)
10 mm: Diameter of zone of inhibition ([1]; Quantity n 0.14) | Diameter of zone of inhibition (S. aureus 39105; Quantity n 0.14)
28 mm: Diameter of zone of inhibition (S. aureus ATCC 6538; Quantity n 0.14) | Diameter of zone of inhibition (S. epidermidis 125; Quantity n 0.29)
8 mm: Diameter of zone of inhibition (S. epidermidis 563; Quantity n 0.14)
34 mm: Diameter of zone of inhibition ([5]; Quantity n 0.29)
32 mm: Diameter of zone of inhibition (B. subtilis AWD 166; Quantity n 0.29) | Diameter of zone of inhibition (S. aureus ATCC 6538; Quantity n 0.29)
12 mm: Diameter of zone of inhibition (S. aureus 36881; Quantity n 0.29) | Diameter of zone of inhibition ([4]; Quantity n 0.29)
14 mm: Diameter of zone of inhibition ([1]; Quantity n 0.29) | Diameter of zone of inhibition (S. epidermidis 125; Quantity n 0.029) | Diameter of zone of inhibition (S. epidermidis 847; Quantity n [mol] 0.14) | Diameter of zone of inhibition (S. epidermidis 1068; Quantity n 0.14) | Diameter of zone of inhibition (S. epidermidis 563; Quantity n 0.29)
22 mm: Diameter of zone of inhibition ([6]; Quantity n 0.29) | Diameter of zone of inhibition (S. epidermidis 1071; Quantity n 0.29)
24 mm: Diameter of zone of inhibition (S. aureus 33490; Quantity n [μmol] 0.29) | Diameter of zone of inhibition (B. subtilis AWD 166; Quantity n 0.029) | Diameter of zone of inhibition (S. epidermidis 125; Quantity n 0.14)
16 mm: Diameter of zone of inhibition (S. aureus 38418; Quantity n [mol] 0.029) | Diameter of zone of inhibition ([6]; Quantity n 0.14)
18 mm: Diameter of zone of inhibition (S. aureus 39105; Quantity n 0.29) | Diameter of zone of inhibition (S. epidermidis 847; Quantity n [mol] 0.29) | Diameter of zone of inhibition (S. epidermidis 1071; Quantity n 0.14) | Diameter of zone of inhibition (S. epidermidis 1068; Quantity n 0.29)
20 mm: Diameter of zone of inhibition (S. aureus 33490; Quantity n [μmol] 0.14) | Diameter of zone of inhibition (S. aureus ATCC 6538; Quantity n 0.029) | Diameter of zone of inhibition ([5]; Quantity n 0.029)
